From US12016864B2, “LOX enzyme inhibiting methods and compositions” (ANOVIA BIOSCIENCES, INC., priority 2021, dated 2024)

Biological target: T1, Bovine lysyl oxidase (LOX) (Bos taurus, UniProt P33072)
T1 construct: from tissue; host or cells: adult bovine tendon
T1 sequence (P33072 170-418): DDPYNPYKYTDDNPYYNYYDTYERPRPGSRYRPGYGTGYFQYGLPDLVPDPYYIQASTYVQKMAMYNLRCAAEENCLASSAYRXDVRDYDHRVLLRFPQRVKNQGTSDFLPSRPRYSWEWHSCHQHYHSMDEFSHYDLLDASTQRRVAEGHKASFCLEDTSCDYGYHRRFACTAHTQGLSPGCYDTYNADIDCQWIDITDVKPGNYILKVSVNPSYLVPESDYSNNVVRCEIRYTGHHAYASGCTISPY
Assay: LOX inhibition assay, fluorometric (cadaverine / HRP / Amplex Red)
Assay type: biochemical
Conditions: LOX extracted from bovine tendon; 30 min preincubation at 37° C.; 5 mM cadaverine; read-out: Activity Range LOX
Description: The ability of compounds to inhibit prototypic LOX was determined using a fluorometric assay. This assay measures the activity of lysyl oxidases by coupling the reaction with horseradish peroxidase-catalyzed […]. The activity assay protocol uses cadaverine as substrate that releases hydrogen peroxide upon transformation by prototypic LOX enzyme present in the sample. Hydrogen peroxide was in turn detected using a red fluorescence substrate for HRP-coupled reactions (Amplex Red Enzyme Assays, Thermo Scientific Fisher). This lead to an increase in fluorescence that can be easily detected at Ex/Em=540/590 nm in a fluorescence microplate
Bovine lysyl oxidase (LOX) was extracted by adapting the methodology from [Kagan et al. 1979 and Borel et al. 2001.] from bovine tendon: Frozen adult bovine tendon was placed in room temperature water to defrost, and then membranes were removed and the remaining tissue cut into 1 cm pieces. The material was first passed through a course mesh meat grinder, and this mince was passed through a fine mesh grinder. The mince was homogenized in 10 v/w of buffer (16 mM sodium phosphate buffer pH 7.8, 400 mM NaCl) using a Waring blender. The homogenate was centrifuged at 15,000×g for 15 min at 4° C. After centrifugation, the supernatant was discarded and the pellets resuspended in 10 volumes of the same buffer. The mixture was blended again and centrifuged with the same settings. This time the pellets were blended in 3 volumes of extraction buffer (16 mM sodium phosphate buffer pH 7.8) and left to incubate at 4° C. for 2 h. After this time, the slurry was centrifuged with the same settings as described above. The supernatant was used in an ultrafiltration step to remove large proteins by size exclusion through a 30 kDalton filter (EMD Millipore). The filtrate was mixed with DEAE Sephadex (GE Healthcare), or passed over a MonoQ FPLC column. After two washes, one in 16 mM sodium phosphate buffer pH 7.8, 380 mM NaCl, and another in 16 mM sodium phosphate buffer pH 7.8, the proteins were eluted with 16 mM sodium phosphate pH 7.8, 10 μM CuSO4, and 4 M urea. Fractions containing Lox activity were collected and stored frozen at −70° C.
Final concentration in the LOX assay is shown in Table 6 below and performed in a total volume of […].
7 μl of freshly prepared reaction buffer were delivered to reaction wells. Compounds were resuspended in 100% DMSO at 10 mM and delivered into buffer using acoustic technology (Echo550; nanoliter range). A 2.85× solution of LOX protein in reaction buffer was prepared (“LOX solution”) and 7 μl of LOX solution was added into the reaction wells. Buffer only was added to column 1 for no protein control. Reactions were incubated for 30 minutes at 37° C. A 3.33× mixture of cadaverine, Amplex Red, and HRP (“Substrate/Detection Mix) was prepared and subsequently 6 μL of the mixture was added to each reaction well. Progress of reactions was monitored for 120 minutes at 37° C. using Clariostar plate reader (ex530-12, ems 600-40). For all activity assays, pan-LOX inhibitor CCT365623 (Tang et al, 2017) and LOXL2/LOXL3 inhibitor PAT-1251 (PharmaKea) were included as standards.
The slope of the linear portion of the progress curve was calculated using Clariostar software. Typical analysis interval was between 20-50 min, but varied between experiments. The background subtracted signals (No protein wells were considered as background) were converted to % activity relative to DMSO controls. Data was analyzed using GraphPad Prism 4 with “sigmoidal dose-response (variable slope)”; 4 parameters with Hill Slope. Constraints: Bottom=Constant equal to 0. Top=Must be less than 120.

Row | IC50 | SMILES
1 | 1000 to 30000 nM | NCc1ccnc(S(=O)(=O)C[C@@H]2C[C@H](c3ccccc3)CN2S(=O)(=O)N2CCOCC2)c1 (racemic) [Example 195, Cis-(2-(((1-(Morpholinosulfonyl)-4-phenylpyrrolidin-2-yl)methyl)sulfonyl)pyridin-4-yl)methanamine 2,2,2-trifluoroacetate]
2 | 1000 to 30000 nM | NCc1ccnc(S(=O)(=O)C[C@@H]2C[C@H](c3ccccc3)CN2S(=O)(=O)N2CCS(=O)(=O)CC2)c1 (racemic) [Example 196, cis-4-((2-(((4-(Aminomethyl)pyridin-2-yl)sulfonyl)methyl)-4-phenylpyrrolidin-1-yl)sulfonyl)thiomorpholine 1,1-dioxide 2,2,2-trifluoroacetate]
3 | 1000 to 30000 nM | NCc1ccnc(S(=O)(=O)C[C@H]2C[C@@H](c3ccccc3)CN2S(=O)(=O)N2CCOCC2)c1 (single isomer, unassigned) [Example 195A]
4 | 1000 to 30000 nM | NCc1ccnc(S(=O)(=O)C[C@@H]2C[C@H](c3ccccc3)CN2S(=O)(=O)N2CCOCC2)c1 (single isomer, unassigned) [Example 195B]
5 | 500 to 1000 nM | NCc1ccnc(S(=O)(=O)C[C@@H]2C[C@H](c3ccccc3)CN2S(=O)(=O)N2CCS(=O)(=O)CC2)c1 [Example 196A, 4-(((2S,4R)-2-(((4-(aminomethyl)pyridin-2-yl)sulfonyl)methyl)-4-phenylpyrrolidin-1-yl)sulfonyl)thiomorpholine 1,1-dioxide 2,2,2-trifluoroacetate]
6 | 500 to 1000 nM | NCc1ccnc(S(=O)(=O)C[C@H]2C[C@@H](c3ccccc3)CN2S(=O)(=O)N2CCS(=O)(=O)CC2)c1 [Example 196B, 4-(((2R,4S)-2-(((4-(aminomethyl)pyridin-2-yl)sulfonyl)methyl)-4-phenylpyrrolidin-1-yl)sulfonyl)thiomorpholine 1,1-dioxide 2,2,2-trifluoroacetate]
